Tested on: subjects with moderate-to-severe plaque psoriasis
Assay: PSSD symptom and sign scores, Example 2
Type: in vivo, human
Settings: for Change from Baseline in PSSD Sign Score, LSMean / Change from Baseline in PSSD Symptom Score, LSMean: MMRM

For `CC(=O)NCCCC[C@@H]1NC(=O)[C@H](Cc2c[nH]c3c(C)cccc23)NC(=O)[C@H]([C@@H](C)O)NC(=O)[C@H](CC(N)=O)NC(=O)[C@@H](NC(C)=O)C(C)(C)SSC(C)(C)[C@@H](C(=O)N[C@@H](Cc2ccc(OCCN)cc2)C(=O)N[C@@H](Cc2ccc3ccccc3c2)C(=O)NC2(C(=O)N[C@@H](CCC(=O)O)C(=O)N[C@@H](CC(N)=O)C(=O)N[C@@H](Cc3cccnc3)C(=O)N(C)CC(N)=O)CCOCC2)NC1=O` [IL-23 receptor antagonist peptide, Ac-[Pen]*-N-T-[W(7-Me)]-[Lys(Ac)]-[Pen]*-Phe[4-(2-aminoethoxy)]-[2-Nal]-[THP]-E-N-[3-Pal]-Sarc-NH2 (*[Pen]-[Pen]* formdisulfidebond)], the “Change from Baseline in PSSD Symptom Score, Mean” value (Week 4, 50 mg QD) was −23.6, the “Change from Baseline in PSSD Symptom Score, Median” value (Week 4, 50 mg QD) was −23.0 and the “Change from Baseline in PSSD Sign Score, LSMean” value (Week 4, 50 mg QD) was −28.0. For the same compound, the “Change from Baseline in PSSD Symptom Score, LSMean” value (Week 4, 50 mg QD) was −23.4, the “Change from Baseline in PSSD Sign Score, Mean” value (Week 4, 100 mg BID) was −33.3 and the “Change from Baseline in PSSD Sign Score, Median” value (Week 4, 100 mg BID) was −32.0. For the same compound, the “Change from Baseline in PSSD Symptom Score, Mean” value (Week 4, 100 mg BID) was −26.1, the “Change from Baseline in PSSD Symptom Score, Median” value (Week 4, 100 mg BID) was −22.0 and the “Subjects Achieving PSSD Symptom Score 0 (%)” value (Week 4, 100 mg BID, Baseline Symptom Score ≥1, N=42) was “(4.8%)”. The “Change from Baseline in PSSD Sign Score, LSMean” value (Week 4, 100 mg BID) was −32.9, the “Change from Baseline in PSSD Symptom Score, LSMean” value (Week 4, 100 mg BID) was −24.4 and the “Change from Baseline in PSSD Sign Score, Mean” value (Week 4, 100 mg QD) was −31.1. For the same compound, the “Change from Baseline in PSSD Sign Score, Median” value (Week 4, 100 mg QD) was −32.5, the “Change from Baseline in PSSD Symptom Score, Mean” value (Week 4, 100 mg QD) was −19.4 and the “Change from Baseline in PSSD Symptom Score, Median” value (Week 4, 100 mg QD) was −17.0. The “Subjects Achieving PSSD Sign Score 0 (%)” value (Week 4, 100 mg QD, Baseline Sign Score ≥1, N=43) was “(2.3%)”, the “Subjects Achieving PSSD Symptom Score 0 (%)” value (Week 4, 100 mg QD, Baseline Symptom Score ≥1, N=43) was “(2.3%)” and the “Change from Baseline in PSSD Sign Score, LSMean” value (Week 4, 100 mg QD) was −33.8. The “Change from Baseline in PSSD Symptom Score, LSMean” value (Week 4, 100 mg QD) was −24.5, the “Change from Baseline in PSSD Sign Score, Mean” value (Week 8, 25 mg BID) was −33.8 and the “Change from Baseline in PSSD Sign Score, Median” value (Week 8, 25 mg BID) was −38.0. The “Change from Baseline in PSSD Symptom Score, Mean” value (Week 8, 25 mg BID) was −27.5, the “Change from Baseline in PSSD Symptom Score, Median” value (Week 8, 25 mg BID) was −22.0 and the “Subjects Achieving PSSD Sign Score 0 (%)” value (Week 8, 25 mg BID, Baseline Sign Score ≥1, N=41) was “(2.4%)”. The “Subjects Achieving PSSD Symptom Score 0 (%)” value (Week 8, 25 mg BID, Baseline Symptom Score ≥1, N=41) was “(7.3%)”, the “Change from Baseline in PSSD Sign Score, LSMean” value (Week 8, 25 mg BID) was −34.1 and the “Change from Baseline in PSSD Symptom Score, LSMean” value (Week 8, 25 mg BID) was −27.5. The “Change from Baseline in PSSD Sign Score, Mean” value (Week 8, 25 mg QD) was −33.0, the “Change from Baseline in PSSD Sign Score, Median” value (Week 8, 25 mg QD) was −40.0 and the “Change from Baseline in PSSD Symptom Score, Mean” value (Week 8, 25 mg QD) was −32.3. For the same compound, the “Change from Baseline in PSSD Symptom Score, Median” value (Week 8, 25 mg QD) was −32.0, the “Subjects Achieving PSSD Sign Score 0 (%)” value (Week 8, 25 mg QD, Baseline Sign Score ≥1, N=43) was “(4.7%)” and the “Subjects Achieving PSSD Symptom Score 0 (%)” value (Week 8, 25 mg QD, Baseline Symptom Score ≥1, N=43) was “(9.3%)”. For the same compound, the “Change from Baseline in PSSD Sign Score, LSMean” value (Week 8, 25 mg QD) was −29.0, the “Change from Baseline in PSSD Symptom Score, LSMean” value (Week 8, 25 mg QD) was −27.1 and the “Change from Baseline in PSSD Sign Score, Mean” value (Week 8, 50 mg QD) was −39.7. The “Change from Baseline in PSSD Sign Score, Median” value (Week 8, 50 mg QD) was −40.5, the “Change from Baseline in PSSD Symptom Score, Mean” value (Week 8, 50 mg QD) was −35.0 and the “Change from Baseline in PSSD Symptom Score, Median” value (Week 8, 50 mg QD) was −36.0. The “Subjects Achieving PSSD Sign Score 0 (%)” value (Week 8, 50 mg QD, Baseline Sign Score ≥1, N=43) was “(7.0%)”, the “Subjects Achieving PSSD Symptom Score 0 (%)” value (Week 8, 50 mg QD, Baseline Symptom Score ≥1, N=42) was “(9.5%)” and the “Change from Baseline in PSSD Sign Score, LSMean” value (Week 8, 50 mg QD) was −40.1. The “Change from Baseline in PSSD Symptom Score, LSMean” value (Week 8, 50 mg QD) was −34.3, the “Change from Baseline in PSSD Sign Score, Mean” value (Week 8, 100 mg BID) was −48.3 and the “Change from Baseline in PSSD Sign Score, Median” value (Week 8, 100 mg BID) was −52.0. For the same compound, the “Change from Baseline in PSSD Symptom Score, Mean” value (Week 8, 100 mg BID) was −41.7, the “Change from Baseline in PSSD Symptom Score, Median” value (Week 8, 100 mg BID) was −42.0 and the “Subjects Achieving PSSD Sign Score 0 (%)” value (Week 8, 100 mg BID, Baseline Sign Score ≥1, N=42) was “(9.5%)”. The “Subjects Achieving PSSD Symptom Score 0 (%)” value (Week 8, 100 mg BID, Baseline Symptom Score ≥1, N=42) was “(16.7%)”, the “Change from Baseline in PSSD Sign Score, LSMean” value (Week 8, 100 mg BID) was −47.5 and the “Change from Baseline in PSSD Symptom Score, LSMean” value (Week 8, 100 mg BID) was −39.2. For the same compound, the “Change from Baseline in PSSD Sign Score, Mean” value (Week 8, 100 mg QD) was −40.2, the “Change from Baseline in PSSD Sign Score, Median” value (Week 8, 100 mg QD) was −43.0 and the “Change from Baseline in PSSD Symptom Score, Mean” value (Week 8, 100 mg QD) was −27.8. For the same compound, the “Change from Baseline in PSSD Symptom Score, Median” value (Week 8, 100 mg QD) was −26.0, the “Subjects Achieving PSSD Sign Score 0 (%)” value (Week 8, 100 mg QD, Baseline Sign Score ≥1, N=43) was “(7.0%)” and the “Subjects Achieving PSSD Symptom Score 0 (%)” value (Week 8, 100 mg QD, Baseline Symptom Score ≥1, N=43) was “(14.0%)”. The “Change from Baseline in PSSD Sign Score, LSMean” value (Week 8, 100 mg QD) was −43.2, the “Change from Baseline in PSSD Symptom Score, LSMean” value (Week 8, 100 mg QD) was −33.3 and the “Change from Baseline in PSSD Sign Score, Mean” value (Week 12, 25 mg BID) was −38.5. For the same compound, the “Change from Baseline in PSSD Sign Score, Median” value (Week 12, 25 mg BID) was −40.0, the “Change from Baseline in PSSD Symptom Score, Mean” value (Week 12, 25 mg BID) was −32.0 and the “Change from Baseline in PSSD Symptom Score, Median” value (Week 12, 25 mg BID) was −28.0. The “Subjects Achieving PSSD Sign Score 0 (%)” value (Week 12, 25 mg BID, Baseline Sign Score ≥1, N=41) was “(7.3%)”, the “Subjects Achieving PSSD Symptom Score 0 (%)” value (Week 12, 25 mg BID, Baseline Symptom Score ≥1, N=41) was “(7.3%)” and the “Change from Baseline in PSSD Sign Score, LSMean” value (Week 12, 25 mg BID) was −39.0. The “Change from Baseline in PSSD Symptom Score, LSMean” value (Week 12, 25 mg BID) was −32.3, the “Change from Baseline in PSSD Sign Score, Mean” value (Week 12, 25 mg QD) was −34.8 and the “Change from Baseline in PSSD Sign Score, Median” value (Week 12, 25 mg QD) was −40.0. For the same compound, the “Change from Baseline in PSSD Symptom Score, Mean” value (Week 12, 25 mg QD) was −31.5, the “Change from Baseline in PSSD Symptom Score, Median” value (Week 12, 25 mg QD) was −34.0 and the “Subjects Achieving PSSD Symptom Score 0 (%)” value (Week 12, 25 mg QD, Baseline Symptom Score ≥1, N=43) was “(14.0%)”. The “Change from Baseline in PSSD Sign Score, LSMean” value (Week 12, 25 mg QD) was −30.7, the “Change from Baseline in PSSD Symptom Score, LSMean” value (Week 12, 25 mg QD) was −25.8 and the “Change from Baseline in PSSD Sign Score, Mean” value (Week 12, 50 mg QD) was −42.5. For the same compound, the “Change from Baseline in PSSD Sign Score, Median” value (Week 12, 50 mg QD) was −46.0, the “Change from Baseline in PSSD Symptom Score, Mean” value (Week 12, 50 mg QD) was −36.3 and the “Change from Baseline in PSSD Symptom Score, Median” value (Week 12, 50 mg QD) was −37.0. The “Subjects Achieving PSSD Sign Score 0 (%)” value (Week 12, 50 mg QD, Baseline Sign Score ≥1, N=43) was “(4.7%)”, the “Subjects Achieving PSSD Symptom Score 0 (%)” value (Week 12, 50 mg QD, Baseline Symptom Score ≥1, N=42) was “(19.0%)” and the “Change from Baseline in PSSD Sign Score, LSMean” value (Week 12, 50 mg QD) was −43.0. The “Change from Baseline in PSSD Symptom Score, LSMean” value (Week 12, 50 mg QD) was −35.7, the “Change from Baseline in PSSD Sign Score, Mean” value (Week 12, 100 mg BID) was −49.9 and the “Change from Baseline in PSSD Sign Score, Median” value (Week 12, 100 mg BID) was −53.0. For the same compound, the “Change from Baseline in PSSD Symptom Score, Mean” value (Week 12, 100 mg BID) was −42.3, the “Change from Baseline in PSSD Symptom Score, Median” value (Week 12, 100 mg BID) was −41.0 and the “Subjects Achieving PSSD Sign Score 0 (%)” value (Week 12, 100 mg BID, Baseline Sign Score ≥1, N=42) was “(11.9%)”. For the same compound, the “Subjects Achieving PSSD Symptom Score 0 (%)” value (Week 12, 100 mg BID, Baseline Symptom Score ≥1, N=42) was “(26.2%)”, the “Change from Baseline in PSSD Sign Score, LSMean” value (Week 12, 100 mg BID) was −48.8 and the “Change from Baseline in PSSD Symptom Score, LSMean” value (Week 12, 100 mg BID) was −39.5. For the same compound, the “Change from Baseline in PSSD Sign Score, Mean” value (Week 12, 100 mg QD) was −39.1, the “Change from Baseline in PSSD Sign Score, Median” value (Week 12, 100 mg QD) was −45.0 and the “Change from Baseline in PSSD Symptom Score, Mean” value (Week 12, 100 mg QD) was −27.9. For the same compound, the “Change from Baseline in PSSD Symptom Score, Median” value (Week 12, 100 mg QD) was −27.0, the “Subjects Achieving PSSD Sign Score 0 (%)” value (Week 12, 100 mg QD, Baseline Sign Score ≥1, N=43) was “(7.0%)” and the “Subjects Achieving PSSD Symptom Score 0 (%)” value (Week 12, 100 mg QD, Baseline Symptom Score ≥1, N=43) was “(20.9%)”. The “Change from Baseline in PSSD Sign Score, LSMean” value (Week 12, 100 mg QD) was −42.2, the “Change from Baseline in PSSD Symptom Score, LSMean” value (Week 12, 100 mg QD) was −34.7 and the “Change from Baseline in PSSD Sign Score, Mean” value (Week 16, 25 mg BID) was −41.8. The “Change from Baseline in PSSD Sign Score, Median” value (Week 16, 25 mg BID) was −36.5, the “Change from Baseline in PSSD Symptom Score, Mean” value (Week 16, 25 mg BID) was −34.0 and the “Change from Baseline in PSSD Symptom Score, Median” value (Week 16, 25 mg BID) was −28.0. For the same compound, the “Subjects Achieving PSSD Sign Score 0 (%)” value (Week 16, 25 mg BID, Baseline Sign Score ≥1, N=41) was “(9.8%)”, the “Subjects Achieving PSSD Symptom Score 0 (%)” value (Week 16, 25 mg BID, Baseline Symptom Score ≥1, N=41) was “(17.1%)” and the “Change from Baseline in PSSD Sign Score, LSMean” value (Week 16, 25 mg BID) was −40.9. For the same compound, the “Change from Baseline in PSSD Symptom Score, LSMean” value (Week 16, 25 mg BID) was −32.7, the “Change from Baseline in PSSD Sign Score, Mean” value (Week 16, 25 mg QD) was −38.6 and the “Change from Baseline in PSSD Sign Score, Median” value (Week 16, 25 mg QD) was −43.0. The “Change from Baseline in PSSD Symptom Score, Mean” value (Week 16, 25 mg QD) was −35.8 and the “Change from Baseline in PSSD Symptom Score, Median” value (Week 16, 25 mg QD) was −34.0.

— patent publication US20260232767A1, “INTERLEUKIN-23 RECEPTOR ANTAGONIST PEPTIDES FOR USE IN THE TREATMENT OF PSORIASIS” (Janssen Pharmaceutica NV, priority 2023, published 2026)
